Columns and labels:
Assay type in all cases: functional
NCI-H522 = test: Cytotoxicity against human NCI-H522 cells assessed as cell growth at 10 uM after 48 hrs by sulforhodamine B assay relative to control; details: NCI-H522, 48 h, read-out: Activity
NCI-H226 [1] = test: Cytotoxicity against human NCI-H226 cells assessed as cell growth at 0.01 uM after 48 hrs by sulforhodamine B assay relative to control; details: NCI-H226, 48 h, read-out: Activity
K562 = test: Cytotoxicity against human K562 cells assessed as cell growth at 0.1 uM after 48 hrs by sulforhodamine B assay relative to control; details: K562, 48 h, read-out: Activity
SF-268 = test: Cytotoxicity against human SF268 cells assessed as growth inhibition after 48 hrs by sulforhodamine B assay; details: SF-268, 48 h
OVCAR-8 = test: Cytotoxicity against human OVCAR8 cells assessed as cell growth at 0.1 uM after 48 hrs by sulforhodamine B assay relative to control; details: OVCAR-8, 48 h, read-out: Activity
BT-549 = test: Cytotoxicity against human BT549 cells assessed as growth inhibition after 48 hrs by sulforhodamine B assay; details: BT-549, 48 h
Hs-578T = test: Cytotoxicity against human Hs 578T cells assessed as growth inhibition after 48 hrs by sulforhodamine B assay
A498 = test: Cytotoxicity against human A498 cells assessed as cell growth at 100 uM after 48 hrs by sulforhodamine B assay relative to control; details: A498, 48 h, read-out: Activity
CCRF-CEM [2] = test: Cytotoxicity against human CCRF-CEM cells assessed as cell growth at 0.01 uM after 48 hrs by sulforhodamine B assay relative to control; details: read-out: Activity
U-251 = test: Cytotoxicity against human U251 cells assessed as growth inhibition after 48 hrs by sulforhodamine B assay; details: U-251, 48 h
PC-3 = test: Cytotoxicity against human PC3 cells assessed as growth inhibition after 48 hrs by sulforhodamine B assay; details: PC-3, 48 h
NCI-H226 [3] = test: Cytotoxicity against human NCI-H226 cells assessed as growth inhibition after 48 hrs by sulforhodamine B assay; details: NCI-H226, 48 h
UACC-257 [4] = test: Cytotoxicity against human UACC257 cells assessed as cell growth at 1 uM after 48 hrs by sulforhodamine B assay relative to control; details: UACC-257, 48 h, read-out: Activity
KM12 [5] = test: Cytotoxicity against human KM12 cells assessed as growth inhibition after 48 hrs by sulforhodamine B assay; details: KM12, 48 h
MDA-MB-435 = test: Cytotoxicity against human MDA-MB-435 cells assessed as cell growth at 100 uM after 48 hrs by sulforhodamine B assay relative to control; details: MDA-MB-435, 48 h, read-out: Activity
786-0 = test: Cytotoxicity against human 786-0 cells assessed as cell growth at 1 uM after 48 hrs by sulforhodamine B assay relative to control; details: 786-0, 48 h, read-out: Activity
HT-29 [6] = test: Cytotoxicity against human HT-29 cells assessed as cell growth at 1 uM after 48 hrs by sulforhodamine B assay relative to control; details: HT-29, 48 h, read-out: Activity
HCT-116 = test: Cytotoxicity against human HCT116 cells assessed as cell growth at 10 uM after 48 hrs by sulforhodamine B assay relative to control; details: HCT-116, 48 h, read-out: Activity
HT-29 [7] = test: Cytotoxicity against human HT-29 cells assessed as cell growth at 10 uM after 48 hrs by sulforhodamine B assay relative to control; details: HT-29, 48 h, read-out: Activity
SK-OV-3 [8] = test: Cytotoxicity against human SKOV3 cells assessed as cell growth at 0.1 uM after 48 hrs by sulforhodamine B assay relative to control; details: SK-OV-3, 48 h, read-out: Activity
UACC-257 [9] = test: Cytotoxicity against human UACC257 cells assessed as cell growth at 0.1 uM after 48 hrs by sulforhodamine B assay relative to control; details: UACC-257, 48 h, read-out: Activity
SK-OV-3 [10] = test: Cytotoxicity against human SKOV3 cells assessed as cell growth at 10 uM after 48 hrs by sulforhodamine B assay relative to control; details: SK-OV-3, 48 h, read-out: Activity
NCI/ADR-RES = test: Cytotoxicity against human NCI/ADR-RES cells assessed as growth inhibition after 48 hrs by sulforhodamine B assay
OVCAR-5 = test: Cytotoxicity against human OVCAR5 cells assessed as growth inhibition after 48 hrs by sulforhodamine B assay; details: OVCAR-5, 48 h
HT-29 [11] = test: Cytotoxicity against human HT-29 cells assessed as cell growth at 0.01 uM after 48 hrs by sulforhodamine B assay relative to control; details: HT-29, 48 h, read-out: Activity
RXF 393 [12] = test: Cytotoxicity against human RXF393 cells assessed as cell growth at 0.01 uM after 48 hrs by sulforhodamine B assay relative to control; details: RXF 393, 48 h, read-out: Activity
RXF 393 [13] = test: Cytotoxicity against human RXF393 cells assessed as cell growth at 100 uM after 48 hrs by sulforhodamine B assay relative to control; details: RXF 393, 48 h, read-out: Activity
MDA-MB-231 = test: Cytotoxicity against human MDA-MB-231 cells assessed as cell growth at 0.1 uM after 48 hrs by sulforhodamine B assay relative to control; details: MDA-MB-231, 48 h, read-out: Activity
CCRF-CEM [14] = test: Cytotoxicity against human CCRF-CEM cells assessed as cell growth at 0.1 uM after 48 hrs by sulforhodamine B assay relative to control; details: read-out: Activity
HT-29 [15] = test: Cytotoxicity against human HT-29 cells assessed as growth inhibition after 48 hrs by sulforhodamine B assay; details: HT-29, 48 h
SNB-19 = test: Cytotoxicity against human SNB19 cells assessed as cell growth at 0.01 uM after 48 hrs by sulforhodamine B assay relative to control; details: SNB-19, 48 h, read-out: Activity
KM12 [16] = test: Cytotoxicity against human KM12 cells assessed as cell growth at 10 uM after 48 hrs by sulforhodamine B assay relative to control; details: KM12, 48 h, read-out: Activity
KM12 [17] = test: Cytotoxicity against human KM12 cells assessed as cell growth at 1 uM after 48 hrs by sulforhodamine B assay relative to control; details: KM12, 48 h, read-out: Activity
RXF 393 [18] = test: Cytotoxicity against human RXF393 cells assessed as cell growth at 1 uM after 48 hrs by sulforhodamine B assay relative to control; details: RXF 393, 48 h, read-out: Activity
RPMI-8226 = test: Cytotoxicity against human RPMI8226 cells assessed as cell growth at 10 uM after 48 hrs by sulforhodamine B assay relative to control; details: RPMI-8226, 48 h, read-out: Activity
UACC-62 = test: Cytotoxicity against human UACC62 cells assessed as cell growth at 1 uM after 48 hrs by sulforhodamine B assay relative to control; details: UACC-62, 48 h, read-out: Activity

COc1cc(C(=O)/C=C/c2cc(-c3ccc4c(c3)OCO4)n[nH]2)cc(OC)c1OC
growth at 10 µM (NCI-H522): -71% | growth at 0.01 µM (NCI-H226 [1]): 97% | growth at 0.1 µM (K562): 84% | GI50 (SF-268): 2.45 µM | TGI (SF-268): 7.64 µM | CC50 (SF-268; read-out: LC50 (the source's name)): 31.2 µM | growth at 0.1 µM (OVCAR-8): 100% | GI50 (BT-549): 2.02 µM | LC50 (concentration killing 50% of cells) (BT-549): 20.1 µM | TGI (BT-549): 5 µM | GI50 (Hs-578T): 3.14 µM | LC50 (Hs-578T): > 100 µM | TGI (Hs-578T): 20.5 µM | growth at 100 µM (A498): -98% | growth at 0.01 µM (CCRF-CEM [2]): 99% | GI50 (U-251): 1.21 µM | LC50 (U-251): 5.13 µM | TGI (U-251): 2.49 µM | GI50 (PC-3): 1.51 µM | LC50 (PC-3): 12.4 µM | TGI (PC-3): 4.02 µM | GI50 (NCI-H226 [3]): 1.52 µM | LC50 (concentration killing 50% of cells) (NCI-H226 [3]): > 100 µM | TGI (NCI-H226 [3]): 4.25 µM | growth at 1 µM (UACC-257 [4]): 96% | GI50 (KM12 [5]): 1.86 µM | LC50 (KM12 [5]): 7.97 µM | TGI (KM12 [5]): 3.85 µM | growth at 100 µM (MDA-MB-435): -88% | growth at 1 µM (786-0): 98% | growth at 1 µM (HT-29 [6]): 96% | growth at 10 µM (HCT-116): -43% | growth at 10 µM (HT-29 [7]): -22% | growth at 0.1 µM (SK-OV-3 [8]): 105% | growth at 0.1 µM (UACC-257 [9]): 97% | growth at 10 µM (SK-OV-3 [10]): 19% | GI50 (NCI/ADR-RES): 2.99 µM | LC50 (NCI/ADR-RES): > 100 µM | TGI (NCI/ADR-RES): 12.3 µM | GI50 (OVCAR-5): 2.63 µM | LC50 (OVCAR-5): 76.8 µM | TGI (OVCAR-5): 9.6 µM | growth at 0.01 µM (HT-29 [11]): 103% | growth at 0.01 µM (RXF 393 [12]): 93% | growth at 100 µM (RXF 393 [13]): -92% | growth at 0.1 µM (MDA-MB-231): 98% | growth at 0.1 µM (CCRF-CEM [14]): 98% | GI50 (HT-29 [15]): 2.45 µM | LC50 (HT-29 [15]): > 100 µM | TGI (HT-29 [15]): 6.53 µM | growth at 0.01 µM (SNB-19): 92% | growth at 10 µM (KM12 [16]): -66% | growth at 1 µM (KM12 [17]): 93% | growth at 1 µM (RXF 393 [18]): 67% | growth at 10 µM (RPMI-8226): -48% | growth at 1 µM (UACC-62): 89%

Source: ChEMBL document CHEMBL4138123, “Design, synthesis and biological evaluation of novel pyrazolochalcones as potential modulators of PI3K/Akt/mTOR pathway and inducers of apoptosis in breast cancer cells” (Eur J Med Chem, 2017)
